The text below walks through data of patent US8293768B2, “Organic compounds” (Novartis AG, priority 2006, dated 2012).

For `Cc1nc(N2CCN(Cc3cccc4cccnc34)C2=O)sc1C(=O)NCc1cccnc1` [Example 32.2, 4-methyl-2-(2-oxo-3-(quinolin-8-ylmethyl)imidazolidin-1-yl)-N-(pyridin-3-ylmethyl)thiazole-5-carboxamide], the melting point (usually the temperature, or range, at which the solid turns liquid) lay in the range of 225 to 228 °C. `Cc1nc(N2CCN(CC3CCCCO3)C2=O)sc1C(=O)NCc1cccnc1` (centres unmarked) [Example 9.36, 4-methyl-2-(2-oxo-3-((tetrahydro-2H-pyran-2-yl)methyl)imidazolidin-1-yl)-N-(pyridin-3-ylmethyl)thiazole-5-carboxamide] yielded a melting point of 174 to 175 °C. As for `Cc1nc(N2CCN(Cc3ccccc3)C2=O)sc1C(=O)NCc1ccc(F)cc1` [Example 9, 2-(3-benzyl-2-oxoimidazolidin-1-yl)-N-(4-fluorobenzyl)-4-methylthiazole-5-carboxamide], the melting point is 147 to 148 °C. The value for `Cc1nc(N2CCN(CC3CCCC3)C2=O)sc1C(=O)NCc1cccnc1` [Example 9.38, 2-(3-(cyclopentylmethyl)-2-oxoimidazolidin-1-yl)-4-methyl-N-(pyridin-3-ylmethyl)thiazole-5-carboxamide] was 142 to 143 °C; that for `Cc1nc(N2CCN(Cc3ccc(F)cc3)C2=O)sc1C(=O)NCc1cnccn1` [Example 32.17, 2-(3-(4-fluorobenzyl)-2-oxoimidazolidin-1-yl)-4-methyl-N-(pyrazin-2-ylmethyl)thiazole-5-carboxamide] was 185 to 187 °C; that for `Cc1nc(N2CCN(Cc3ccc(F)cc3)C2=O)sc1C(=O)NCc1ccc(F)cc1` [Example 9.20, N-(4-fluorobenzyl)-2-(3-(4-fluorobenzyl)-2-oxoimidazolidin-1-yl)-4-methylthiazole-5-carboxamide] was 177 to 178 °C. Molecule `COC(=O)c1ccccc1CN1CCN(c2nc(C)c(C(=O)NCc3ccccc3)s2)C1=O` [Example 23.10, methyl 2-((3-(5-(benzylcarbamoyl)-4-methylthiazol-2-yl)-2-oxoimidazolidin-1-yl)methyl)benzoate] yielded a melting point of 130 to 133 °C. Regarding `Cc1nc(N2CCN(Cc3ccc(F)cc3)C2=O)sc1C(=O)NCc1ccc(C(F)F)o1` [Example 9.44, N-((5-(difluoromethyl)furan-2-yl)methyl)-2-(3-(4-fluorobenzyl)-2-oxoimidazolidin-1-yl)-4-methylthiazole-5-carboxamide], the melting point was 173 to 174 °C.

In the case of `Cc1nc(N2CCNC2=O)sc1C(=O)NCc1ccccc1` [Example 22, N-benzyl-4-methyl-2-(2-oxoimidazolidin-1-yl)thiazole-5-carboxamide], the melting point is 226 to 228 °C.

`CCOC(=O)c1sc(N2CCNC2=O)nc1C(F)(F)F` [Example 3.2, ethyl 2-(2-oxoimidazolidin-1-yl)-4-(trifluoromethyl)thiazole-5-carboxylate] came in with a melting point of 185 to 187 °C. With `Cc1nc(N2CCCN(CC3CC3)C2=O)sc1C(=O)NCc1cccnc1` [Example 32.26, 2-(3-(cyclopropylmethyl)-2-oxotetrahydropyrimidin-1(2H)-yl)-4-methyl-N-(pyridin-3-ylmethyl)thiazole-5-carboxamide], the melting point was in the range of 142 to 145 °C. Molecule `Cc1nc(N2CCN(Cc3cccc(F)c3)C2=O)sc1C(=O)NCc1ccccc1` [Example 23.3, N-benzyl-2-(3-(3-fluorobenzyl)-2-oxoimidazolidin-1-yl)-4-methylthiazole-5-carboxamide] gave a melting point of 155 to 156 °C. The value for `CCCCCN1CCN(c2nc(C)c(C(=O)NCc3cccnc3)s2)C1=O` [Example 9.42, 4-methyl-2-(2-oxo-3-pentylimidazolidin-1-yl)-N-(pyridin-3-ylmethyl)thiazole-5-carboxamide] was 102 to 103 °C.

`Cc1nc(N2CCN(CC3CC3)C2=O)sc1C(=O)NCc1ccccn1` [Example 32.24, 2-(3-(cyclopropylmethyl)-2-oxoimidazolidin-1-yl)-4-methyl-N-(pyridin-2-ylmethyl)thiazole-5-carboxamide] registered a melting point of 148 to 151 °C. For the molecule `Cc1nc(N2CCN(Cc3ccc(OC(F)(F)F)cc3)C2=O)sc1C(=O)NCc1cccnc1` [Example 9.22, 4-methyl-2-(2-oxo-3-(4-(trifluoromethoxy)benzyl)imidazolidin-1-yl)-N-(pyridin-3-ylmethyl)thiazole-5-carboxamide], the melting point fell in the range of 165 to 166 °C. Regarding `Cc1nc(-n2cnn(CCNCc3ccc(F)cc3)c2=O)sc1C(=O)NCc1cccnc1` [Example 47, 2-(1-(2-(4-fluorobenzylamino)ethyl)-5-oxo-1H-1,2,4-triazol-4(5H)-yl)-4-methyl-N-(pyridin-3-ylmethyl)thiazole-5-carboxamide], the melting point lay within 106 to 107 °C.

Regarding `Cc1cc(N2CCN(Cc3ccc(C(=O)O)cc3)C2=O)sc1C(=O)NCc1cccnc1` [Example 56, 4-((3-(4-methyl-5-(pyridin-3-ylmethylcarbamoyl)thiophen-2-yl)-2-oxoimidazolidin-1-yl)methyl)benzoic acid], the melting point was 120 °C (dec.).

`Cc1cc(N2CCN(CC(=O)c3ccccc3)C2=O)sc1C(=O)NCc1cccnc1` [Example 55.1, 3-methyl-5-(2-oxo-3-(2-oxo-2-phenylethyl)imidazolidin-1-yl)-N-(pyridin-3-ylmethyl)thiophene-2-carboxamide] yielded a melting point of 174 to 176 °C. For `COC(=O)c1cnc(N2CCN(CC3CC3)C2=O)s1` [Example 24, methyl 2-(3-(cyclopropylmethyl)-2-oxoimidazolidin-1-yl)thiazole-5-carboxylate], the melting point was in the range of 124 to 126 °C. The result for `Cc1cc(-c2sc(N3CCN(Cc4ccc(C(F)(F)F)cc4)C3=O)nc2C)n[nH]1` [Example 38.2, 1-(4-methyl-5-(5-methyl-1H-pyrazol-3-yl)thiazol-2-yl)-3-(4-(trifluoromethyl)benzyl)imidazolidin-2-one] reads 238 to 239 °C; that for `Cc1nc(N2CCN(Cc3ccccc3)C2=O)sc1C(=O)NCc1cccnc1` [Example 9.7, 2-(3-benzyl-2-oxoimidazolidin-1-yl)-4-methyl-N-(pyridin-3-ylmethyl)thiazole-5-carboxamide], 153 to 154 °C. The value for `Cc1nc(N2CCN(Cc3ccc(C#N)cc3)C2=O)sc1C(=O)NCc1ccccc1` [Example 23, N-benzyl-2-(3-(4-cyanobenzyl)-2-oxoimidazolidin-1-yl)-4-methylthiazole-5-carboxamide] was 176 to 178 °C. Turning to `Cc1cc(-n2cnn(CCC3CC3)c2=O)sc1C(=O)NCc1cccnc1` [Example 31.2, 5-(1-(2-cyclopropylethyl)-5-oxo-1H-1,2,4-triazol-4(5H)-yl)-3-methyl-N-(pyridin-3-ylmethyl)thiophene-2-carboxamide], the melting point was in the range of 148 to 150 °C. The molecule `CNC(=O)c1sc(N2CCN(Cc3ccc(F)cc3)C2=O)nc1C` [Example 32.19, 2-(3-(4-fluorobenzyl)-2-oxoimidazolidin-1-yl)-N,4-dimethylthiazole-5-carboxamide] yielded a melting point of 225 to 227 °C. The value for `Cc1nc(N2CCN(Cc3ccccc3)C2=O)sc1C(=O)NCc1cc(F)cc(F)c1` [Example 9.3, 2-(3-benzyl-2-oxoimidazolidin-1-yl)-N-(3,5-difluorobenzyl)-4-methylthiazole-5-carboxamide] was 208 to 209 °C; that for `Cc1cc(-n2cnn(Cc3ccc(C(F)(F)F)cc3)c2=O)sc1C(=O)NCc1cccnc1` [Example 31.3, 3-methyl-5-(5-oxo-1-(4-(trifluoromethyl)benzyl)-1H-1,2,4-triazol-4(5H)-yl)-N-(pyridin-3-ylmethyl)thiophene-2-carboxamide] was 176 to 178 °C; that for `Cc1nc(N2CCN(Cc3ccccc3)C2=O)sc1C(=O)NCc1ccncc1` [Example 9.9, 2-(3-benzyl-2-oxoimidazolidin-1-yl)-4-methyl-N-(pyridin-4-ylmethyl)thiazole-5-carboxamide] was 96 to 97 °C.

As for `Cc1nc(N2CCCN(Cc3ccc(F)cc3)C2=O)sc1C(=O)NCc1cccnc1` [Example 32.25, 2-(3-(4-fluorobenzyl)-2-oxotetrahydropyrimidin-1(2H)-yl)-4-methyl-N-(pyridin-3-ylmethyl)thiazole-5-carboxamide], the melting point lay within 48 to 50 °C. With `Cc1nc(N2CCN(Cc3ccc(F)cc3)C2=O)sc1C(N)=O` [Example 32.18, 2-(3-(4-fluorobenzyl)-2-oxoimidazolidin-1-yl)-4-methylthiazole-5-carboxamide], the melting point lay in the range of 201 to 203 °C.

Turning to `Cc1ncc(CNC(=O)c2sc(N3CCN(Cc4ccc(F)cc4)C3=O)nc2C)s1` [Example 32.12, 2-(3-(4-fluorobenzyl)-2-oxoimidazolidin-1-yl)-4-methyl-N-((2-methylthiazol-5-yl)methyl)thiazole-5-carboxamide], the melting point was in the range of 213 to 215 °C. The result for `Cc1nc(N2CCN(CCc3c[nH]c4ccccc34)C2=O)sc1C(=O)NCc1cccnc1` [Example 32.20, 2-(3-(2-(1H-indol-3-yl)ethyl)-2-oxoimidazolidin-1-yl)-4-methyl-N-(pyridin-3-ylmethyl)thiazole-5-carboxamide] reads 198 to 201 °C; that for `CCOC(=O)c1sc(N2C[C@@H](Cc3ccccc3)NC2=O)nc1C` [Example 11, (R)-ethyl 2-(4-benzyl-2-oxoimidazolidin-1-yl)-4-methylthiazole-5-carboxylate], 102 to 103 °C. For `Cc1nc(N2CCN(Cc3ccccc3)C2=N)sc1C(=O)NCc1ccc(F)c(F)c1` [Example 27.5, 2-(3-benzyl-2-iminoimidazolidin-1-yl)-N-(3,4-difluorobenzyl)-4-methylthiazole-5-carboxamide], the melting point lay in the range of 140 to 142 °C.

For `Cc1nc(N2CCN(Cc3ccc(F)cc3)C2=O)sc1C(=O)NCc1ccccn1` [Example 32.21, 2-(3-(4-fluorobenzyl)-2-oxoimidazolidin-1-yl)-4-methyl-N-(pyridin-2-ylmethyl)thiazole-5-carboxamide], the melting point lay in the range of 183 to 185 °C. In turn, `Cc1nc(N2CCN(Cc3ccccc3)C2=O)sc1C(=O)NCc1ccccc1F` [Example 9.1, 2-(3-benzyl-2-oxoimidazolidin-1-yl)-N-(2-fluorobenzyl)-4-methylthiazole-5-carboxamide] gave a melting point of 167 to 168 °C.
